From publication PMC12523804, “Evaluation of molecular mechanisms of (Z)-3-(pentadec-10′-enyl)-catechol (litreol) and synthetic derivatives as inhibitors of human leukotriene biosynthesis” (Redox Biology, 2025)

Experiments:
ERK = assay: Western blot of ERK phosphorylation; type: cell-based, human; settings: for fMLP-induced activation (phosphorylation) of ERK: PMNL, 1 μM compound, 1 μM fMLP
Procedure: Human polymorphonuclear leukocytes (PMNLs; 50 × 10^6), isolated from whole blood, were resuspended in 1 mL of cold PGC buffer. Briefly, neutrophils were pre-incubated for 15 min at 37 °C with test compounds (1 μM). […] The samples were subsequent centrifuged (1200g, 10 min) and the pellets were resuspended in 100 μL od SDS-PAGE loading buffer (2x) (Tris 1 M pH 8, EDTA 0.2 M, 10 % SDS, 10 % mercaptoethanol). Correct protein loading on the gels and transfer of proteins to the nitrocellulose membrane were confirmed by Ponceau staining. Membranes with transferred proteins were incubated overnight with primary antibodies in 1x Tris Buffered Saline (TBS) with 1 % Casein (Biorad- #1610782). Membranes were then washed and incubated with horseradish peroxidase-conjugated secondary antibodies for 1 h at room temperature. Blots were developed using enhanced chemiluminescence detection reagents ECL (Immobilion ECL Ultra Western HRP Substrate - Cat# WBULS0500 Millipore) and acquired using ChemiDoc Imaging System (BioRad). Antibody recognizing phosphorylated p38-MAPkinase, pERK, ERK, NfKB were from Cell Signalling Technology (Boston, MA) and used at 1:1000 dilution. Secondary antibodies were purchased from Biorad (170–6515; 170–6516) and used at 1:2000 diluition.

5-LO = biological target: T1, 5-LO (Homo sapiens, UniProt P09917); assay: 5-LO product formation in intact human PMNL (neutrophils); type: cell-based; set-up: endogenous in cells; host or cells: human PMNL from peripheral blood of healthy volunteers; settings: for IC50: intact human PMNL
T1 sequence (P09917 1-674): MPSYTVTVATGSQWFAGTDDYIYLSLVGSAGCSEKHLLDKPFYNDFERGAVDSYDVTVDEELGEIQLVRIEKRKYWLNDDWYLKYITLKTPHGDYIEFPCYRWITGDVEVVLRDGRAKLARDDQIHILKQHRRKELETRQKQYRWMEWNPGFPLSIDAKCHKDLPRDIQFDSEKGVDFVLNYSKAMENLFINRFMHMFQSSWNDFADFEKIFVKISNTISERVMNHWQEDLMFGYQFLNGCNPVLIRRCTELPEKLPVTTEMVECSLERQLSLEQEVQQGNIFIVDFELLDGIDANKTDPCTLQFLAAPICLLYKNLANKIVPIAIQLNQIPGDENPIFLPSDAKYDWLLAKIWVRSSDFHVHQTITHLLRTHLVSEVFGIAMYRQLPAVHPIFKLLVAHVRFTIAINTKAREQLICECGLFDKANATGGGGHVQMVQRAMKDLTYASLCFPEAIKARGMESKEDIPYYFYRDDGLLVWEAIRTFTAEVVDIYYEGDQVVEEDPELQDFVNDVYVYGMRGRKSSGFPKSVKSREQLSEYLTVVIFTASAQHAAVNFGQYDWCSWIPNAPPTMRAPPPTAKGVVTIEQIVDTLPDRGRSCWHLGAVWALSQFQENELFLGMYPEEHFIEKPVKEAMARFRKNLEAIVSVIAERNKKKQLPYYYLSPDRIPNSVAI
Procedure: PMNL and monocytes were isolated from human peripheral blood of adult healthy volunteers, with consent, obtained from the Institute of Transfusion Medi-cine, University Hospital Jena (Germany). PMNL were immediately isolated by dextran sedi-mentation, centrifugation on Nycoprep cushions, and hypotonic lysis of erythrocytes, as described. PMNL viability was analyzed by trypan blue exclusion with a Vi-cell counter (Beckmann Coulter GmbH, Krefeld). HEK-293 cells were grown in DMEM/High Glucose (4.5 g/L) medium supplemented with heat-inactivated fetal calf serum (FCS, 10 %, vv_1), 100 U/mLpenicillin, and 100 µg/mL streptomycin at 37 °C in a 5 % CO2 incubator. HEK-293 cells were stably transfected with 5-LO and FLAP as validated experimental cell-based model for studying the regulation of 5-LO [28]. None of the cell lines used in this study were authenticated.
Freshly isolated human PMNL (5 × 10^6) were resuspended in 1 mL PBS buffer containing 1 mg/mL glucose (PG buffer). […] After 10 min at 37 °C, the reaction was stopped with 1 mL of methanol for 10 min on ice and LO products formed and released in the supernatants were extracted and analyzed by HPLC. In detail, after centrifugation (800g, 10 min, room temperature) the samples were applied to C-18 solid-phase extraction columns (100 mg; IST, Mid Glamorgan, United Kingdom), preconditioned with 1 mL methanol and 1 mL water. The columns were washed with 1 mL water and 1 mL water/methanol (75/25, vol/vol) and 5-LO metabolites were eluted with 300 μL methanol. The extract was then diluted with 120 μL water, and 100 μL diluted extract were analyzed by HPLC using a C-18 Radial-Pak column (Waters) eluted with methanol/water/acetic acid 75/25/0.1 (vol/vol/vol) at a flow rate of 1.2 mL/min. Amounts of different metabolites were determined by peak area integration. 5-LO products analyzed include LTB4 and its two all-trans isomers, 5(S)-hydroxy-6-trans-8,11,14-cis-eicosatetraenoic acid (5-HETE), and 5(S)-hydroper-oxy-6-trans-8,11,14-cis-eicosatetraenoic acid (5-HpETE). 5-HETE and 5-HpETE coelute as one major peak, and the integration of this peak represented both eicosanoids.

intracellular Ca2+ = assay: Intracellular Ca2+ measurements in PMNL (Fura-2); type: cell-based, human; settings: 1 μM compound
Procedure: PMNL (10^7 x ml PG buffer) were pre-stained with Fura-2/AM (2 μM) for 45 min at 37 °C in the dark. After two washing steps, cells were resuspended in PG buffer containing 0.1 % BSA at a density of 5 × 10^6/mL. 100 μL of the cell suspension was transferred into a 96-well plate and pre-incubated for 10 min at 37 °C with compound or vehicle (1 % DMSO), and 2 min prior stimulation 1 mM CaCl2 was added, following addition of 0.1 μM fMLP or 2 μM ionomycin as a positive control for Ca^2+ influx. The signal was monitored in a thermally (37 °C) controlled NOVOstar microplate reader (BMG Labtechnologies GmbH, Offenburg, Germany) (emission at 510 nm, excitation at 340 nm (Ca^2+-bound Fura-2) and 380 nm (free Fura-2). After cell lysis with Triton X-100 the maximal fluorescence signals were monitored and after chelating Ca^2+ with 10 mM EDTA the minimal fluorescence signals. The concentration of Ca^2+ was calculated from the ratio of the signals at 340 and 380 nm according to Grynkiewicz G et al..

[1] = Cell-based A23187 (IC50 of 5-LO product formation), […] A23187, 10 min
[2] = Cell-based A23187 + AA (IC50 of 5-LO product formation), […] A23187 plus 20 μM AA, 10 min

Structure (SMILES) | phosphorylation and expression of ERK (Western blot) (ERK; LPS stimulation) | fMLP-induced activation (phosphorylation) of ERK (ERK) | IC50 (5-LO; [1]) | IC50 (5-LO; [2]) | fold greater potency compared to hydrogenated analogue CS (5-LO; comparison of IC50 values (neutrophils and cell-free)) | intracellular Ca2+ concentrations (intracellular Ca2+)
CCCC/C=C\CCCCCCCCCc1cccc(O)c1O [CI, (Z)-3-(pentadec-10′-enyl)-catechol] | significantly inhibited | inhibited | 260 nM | 90 nM | 2.5- to 3 fold | Neither CS nor CI caused significant changes
CCCCCCCCCCCCCCCc1cccc(O)c1O [CS, 3-n-pentadecylcatechol] | – | did not show significant effects | 800 ± 500 nM | 70 nM | – | Neither CS nor CI caused significant changes
